# Measurements reported in PubChem BioAssay AID334 (DTP/NCI, 2004).
# Several values for one entry are separate records, joined by “and”; a condition that tells them apart may be missing. Equal entries are not always repeated. Inconclusive results and toxic doses are left out.
# Tested on: CD2F1 mice, intracerebral P388 leukemia, median survival T/C%
# Assay: NCI In Vivo Anticancer Drug Screen. Data for tumor model P388 Leukemia (intracerebral) in CD2F1 (CDF1) mice
# Conditions: endpoint: median survival time, higher = longer survival
# Description: The antitumor activity of compounds was measured in mice bearing transplantable tumors. Survival or tumor size were measured and the results are expressed as the measurement made in the treated group (T) divided by the measurement made in the vehicle treated control group (C). The tumor model used in this assay is P388 Leukemia (intracerebral) in CD2F1 (CDF1) mice
# [1] = dose: 1.0 mg/kg/injection, schedule: Q01DX009 (ip), vehicle: saline
# [2] = dose: 2.0 mg/kg/injection, schedule: Q01DX009 (ip), vehicle: saline
# [3] = dose: 8.0 mg/kg/injection, schedule: Q01DX009 (ip), vehicle: saline with Tween-80
# [4] = dose: 8.0 mg/kg/injection, schedule: Q01DX009 (ip), vehicle: saline
# [5] = dose: 16.0 mg/kg/injection, schedule: Q01DX009 (ip), vehicle: saline with Tween-80
# [6] = dose: 32.0 mg/kg/injection, schedule: Q01DX009 (ip), vehicle: saline with Tween-80
# [7] = dose: 64.0 mg/kg/injection, schedule: Q01DX009 (ip), vehicle: saline with Tween-80
# [8] = dose: 128.0 mg/kg/injection, schedule: Q01DX009 (ip), vehicle: saline with Tween-80
# [9] = dose: 256.0 mg/kg/injection, schedule: Q01DX009 (ip), vehicle: saline with Tween-80
# [10] = dose: 512.0 mg/kg/injection, schedule: Q01DX009 (ip), vehicle: saline with Tween-80
# [11] = dose: 8.0 mg/kg/injection, schedule: Q01DX009 (ip), vehicle: Klucel (hydroxypropylcellulose) (HPC)
# [12] = dose: 16.0 mg/kg/injection, schedule: Q01DX009 (ip), vehicle: Klucel (hydroxypropylcellulose) (HPC)
# [13] = dose: 32.0 mg/kg/injection, schedule: Q01DX009 (ip), vehicle: Klucel (hydroxypropylcellulose) (HPC)
# [14] = dose: 64.0 mg/kg/injection, schedule: Q01DX009 (ip), vehicle: Klucel (hydroxypropylcellulose) (HPC)
# [15] = dose: 128.0 mg/kg/injection, schedule: Q01DX009 (ip), vehicle: Klucel (hydroxypropylcellulose) (HPC)
# [16] = dose: 256.0 mg/kg/injection, schedule: Q01DX009 (ip), vehicle: Klucel (hydroxypropylcellulose) (HPC)
# [17] = dose: 4.0 mg/kg/injection, schedule: Q01DX009 (ip), vehicle: saline
structure (smiles),measurement,setting,value
COc1ccc2c(c1)CCC(c1ccccc1)=C2c1ccc(OCCN2CCCC2)cc1,T/C,"dose: 12.0 mg/kg/injection, schedule: Q01DX005 (ip), vehicle: Klucel (hydroxypropylcellulose) (HPC)",104 % of control and 110 % of control
same,T/C,"dose: 24.0 mg/kg/injection, schedule: Q01DX005 (ip), vehicle: Klucel (hydroxypropylcellulose) (HPC)",97 % of control and 102 % of control
same,T/C,"dose: 48.0 mg/kg/injection, schedule: Q01DX005 (ip), vehicle: Klucel (hydroxypropylcellulose) (HPC)",104 % of control and 108 % of control
same,T/C,"dose: 96.0 mg/kg/injection, schedule: Q01DX005 (ip), vehicle: Klucel (hydroxypropylcellulose) (HPC)",96 % of control
O=C1C(=O)c2ccccc2C(O)=C1CC=C(Cl)Cl,T/C,"dose: 10.0 mg/kg/injection, schedule: Q01DX005 (ip), vehicle: Klucel (hydroxypropylcellulose) (HPC)",102 % of control and 109 % of control
same,T/C,"dose: 20.0 mg/kg/injection, schedule: Q01DX005 (ip), vehicle: Klucel (hydroxypropylcellulose) (HPC)",96 % of control and 98 % of control
same,T/C,"dose: 40.0 mg/kg/injection, schedule: Q01DX005 (ip), vehicle: Klucel (hydroxypropylcellulose) (HPC)",104 % of control and 105 % of control
same,T/C,"dose: 80.0 mg/kg/injection, schedule: Q01DX005 (ip), vehicle: Klucel (hydroxypropylcellulose) (HPC)",100 % of control
COc1ccc(CC2C(=O)NC(C)C(=O)N(C)C3C(=O)N(C)C(Cc4ccc(O)c(c4)Oc4ccc(cc4)C3O)C(=O)NC(C)C(=O)NC(C)C(=O)N2C)cc1 (stereo unspecified),T/C,"dose: 0.12 mg/kg/injection, schedule: Q01DX009 (ip), vehicle: Klucel (hydroxypropylcellulose) (HPC)",91 % of control and 98 % of control
same,T/C,"dose: 0.13 mg/kg/injection, schedule: Q01DX009 (ip), vehicle: saline",104 % of control and 108 % of control
same,T/C,"dose: 0.25 mg/kg/injection, schedule: Q01DX009 (ip), vehicle: Klucel (hydroxypropylcellulose) (HPC)",100 % of control and 103 % of control and 109 % of control
same,T/C,"dose: 0.25 mg/kg/injection, schedule: Q01DX009 (ip), vehicle: saline",101 % of control and 109 % of control
same,T/C,"dose: 0.5 mg/kg/injection, schedule: Q01DX009 (ip), vehicle: Klucel (hydroxypropylcellulose) (HPC)",100 % of control and 101 % of control and 106 % of control
same,T/C,"dose: 0.5 mg/kg/injection, schedule: Q01DX009 (ip), vehicle: saline",104 % of control and 111 % of control
same,T/C,"dose: 1.0 mg/kg/injection, schedule: Q01DX009 (ip), vehicle: Klucel (hydroxypropylcellulose) (HPC)",95 % of control and 101 % of control and 106 % of control
same,T/C,[1],97 % of control and 103 % of control
same,T/C,"dose: 2.0 mg/kg/injection, schedule: Q01DX009 (ip), vehicle: Klucel (hydroxypropylcellulose) (HPC)",89 % of control
same,T/C,[2],109 % of control and 111 % of control
CCCCCCC(=O)O[C@H]1CC[C@H]2[C@@H]3CCC4=CC(=O)CC[C@]4(C)[C@H]3CC[C@]12C,T/C,"dose: 8.0 mg/kg/injection, schedule: Q01DX009 (ip), vehicle: saline + alcohol",122 % of control and 103 % of control
same,T/C,"dose: 16.0 mg/kg/injection, schedule: Q01DX009 (ip), vehicle: saline + alcohol",118 % of control and 105 % of control
same,T/C,"dose: 32.0 mg/kg/injection, schedule: Q01DX009 (ip), vehicle: saline + alcohol",120 % of control and 102 % of control
same,T/C,"dose: 64.0 mg/kg/injection, schedule: Q01DX009 (ip), vehicle: saline + alcohol",114 % of control and 100 % of control
same,T/C,"dose: 128.0 mg/kg/injection, schedule: Q01DX009 (ip), vehicle: saline + alcohol",118 % of control and 112 % of control
CCC(=O)O[C@H]1CC[C@H]2[C@@H]3CCC4=CC(=O)CC[C@]4(C)[C@H]3CC[C@]12C,T/C,[3],105 % of control
same,T/C,[4],178 % of control
same,T/C,[5],108 % of control
same,T/C,"dose: 16.0 mg/kg/injection, schedule: Q01DX009 (ip), vehicle: saline",106 % of control
same,T/C,[6],105 % of control
same,T/C,"dose: 32.0 mg/kg/injection, schedule: Q01DX009 (ip), vehicle: saline",99 % of control
same,T/C,[7],117 % of control
same,T/C,"dose: 64.0 mg/kg/injection, schedule: Q01DX009 (ip), vehicle: saline",100 % of control
same,T/C,[8],100 % of control
same,T/C,"dose: 128.0 mg/kg/injection, schedule: Q01DX009 (ip), vehicle: saline",100 % of control
same,T/C,[9],107 % of control
same,T/C,"dose: 256.0 mg/kg/injection, schedule: Q01DX009 (ip), vehicle: saline",100 % of control
same,T/C,[10],106 % of control
same,T/C,"dose: 512.0 mg/kg/injection, schedule: Q01DX009 (ip), vehicle: saline",109 % of control
CC(=O)O[C@]1(C(C)=O)CC[C@H]2[C@@H]3C[C@H](C)C4=CC(=O)CC[C@]4(C)[C@H]3CC[C@@]21C,T/C,[11],92 % of control and 104 % of control
same,T/C,[12],100 % of control and 102 % of control
same,T/C,[13],93 % of control and 103 % of control
same,T/C,[14],90 % of control and 99 % of control
same,T/C,[15],90 % of control and 101 % of control
same,T/C,[16],96 % of control and 103 % of control
CN(Cc1cnc2nc(N[Si](C)(C)C)nc(N[Si](C)(C)C)c2n1)c1ccc(C(=O)NC(CCC(=O)O[Si](C)(C)C)C(=O)O[Si](C)(C)C)cc1 (stereo unspecified),T/C,"dose: 0.63 mg/kg/injection, schedule: Q01DX009 (ip), vehicle: olive oil, sesame oil, peanut oil",110 % of control
same,T/C,"dose: 0.63 mg/kg/injection, schedule: Q01DX009 (ip), vehicle: saline",90 % of control
same,T/C,"dose: 1.25 mg/kg/injection, schedule: Q01DX009 (ip), vehicle: olive oil, sesame oil, peanut oil",110 % of control
same,T/C,"dose: 1.25 mg/kg/injection, schedule: Q01DX009 (ip), vehicle: saline",100 % of control
same,T/C,"dose: 1.9 mg/kg/injection, schedule: Q04DX003 (ip), vehicle: saline",95 % of control
same,T/C,"dose: 2.5 mg/kg/injection, schedule: Q01DX009 (ip), vehicle: saline",100 % of control
same,T/C,"dose: 3.8 mg/kg/injection, schedule: Q04DX003 (ip), vehicle: saline",95 % of control
same,T/C,"dose: 5.0 mg/kg/injection, schedule: Q01DX009 (ip), vehicle: saline",95 % of control
same,T/C,"dose: 15.0 mg/kg/injection, schedule: Q04DX003 (ip), vehicle: saline",110 % of control
same,T/C,"dose: 30.0 mg/kg/injection, schedule: Q04DX003 (ip), vehicle: saline",120 % of control
same,T/C,"dose: 60.0 mg/kg/injection, schedule: Q04DX003 (ip), vehicle: saline",115 % of control
NC(CSC(c1ccccc1)(c1ccccc1)c1ccccc1)C(=O)O (stereo unspecified),T/C,"dose: 32.0 mg/kg/injection, schedule: Q01DX005 (ip), vehicle: Klucel (hydroxypropylcellulose) (HPC)",99 % of control and 106 % of control
same,T/C,"dose: 64.0 mg/kg/injection, schedule: Q01DX005 (ip), vehicle: Klucel (hydroxypropylcellulose) (HPC)",102 % of control and 110 % of control
same,T/C,"dose: 128.0 mg/kg/injection, schedule: Q01DX005 (ip), vehicle: Klucel (hydroxypropylcellulose) (HPC)",114 % of control and 100 % of control
same,T/C,"dose: 256.0 mg/kg/injection, schedule: Q01DX005 (ip), vehicle: Klucel (hydroxypropylcellulose) (HPC)",121 % of control
N[C@H](C(=O)O)[C@@H]1CC(Cl)=NO1,T/C,[17],168 % of control
same,T/C,[4],114 % of control
COc1cccc2c1C(=O)c1c(O)c3c(c(O)c1C2=O)C[C@@](O)(/C(C)=N/NC(=O)c1ccccc1)C[C@@H]3OC1CC(N)C(O)C(C)O1 (stereo partly specified),T/C,"dose: 1.0 mg/kg/injection, schedule: Q01DX009 (ip), vehicle: saline with Tween-80",111 % of control
same,T/C,[1],103 % of control and 106 % of control
same,T/C,"dose: 2.0 mg/kg/injection, schedule: Q01DX009 (ip), vehicle: saline with Tween-80",90 % of control and 108 % of control
same,T/C,[2],113 % of control and 106 % of control
same,T/C,"dose: 4.0 mg/kg/injection, schedule: Q01DX009 (ip), vehicle: saline with Tween-80",114 % of control and 116 % of control
same,T/C,[17],113 % of control and 111 % of control
same,T/C,[3],106 % of control and 111 % of control
same,T/C,[4],100 % of control and 103 % of control
same,T/C,[5],90 % of control and 94 % of control
CCC(=O)O[C@H]1CC[C@H]2[C@@H]3CC[C@H]4CC(=O)[C@H](C)C[C@]4(C)[C@H]3CC[C@]12C,T/C,[11],121 % of control and 105 % of control
same,T/C,[3],100 % of control and 106 % of control
same,T/C,[12],94 % of control and 103 % of control
same,T/C,[5],100 % of control and 106 % of control
same,T/C,[13],123 % of control and 98 % of control
same,T/C,[6],97 % of control and 100 % of control
same,T/C,[14],123 % of control and 100 % of control
same,T/C,[7],116 % of control and 91 % of control
same,T/C,[15],120 % of control and 102 % of control
same,T/C,[8],95 % of control and 106 % of control
same,T/C,[16],114 % of control and 94 % of control
same,T/C,[9],100 % of control and 109 % of control
same,T/C,"dose: 512.0 mg/kg/injection, schedule: Q01DX009 (ip), vehicle: Klucel (hydroxypropylcellulose) (HPC)",111 % of control
same,T/C,[10],91 % of control and 106 % of control
O=NN(CCCl)C(=O)NCCCl,T/C,"dose: 8.0 mg/kg/injection, schedule: Q01DX005 (iv), vehicle: saline + alcohol",160 % of control
same,T/C,"dose: 30.0 mg/kg/injection, schedule: Q01DX001 (ip), vehicle: saline + alcohol",202 % of control
same,T/C,"dose: 40.0 mg/kg/injection, schedule: Q01DX001 (ip), vehicle: saline + alcohol",202 % of control
